25 molecules from ChEMBL document CHEMBL5257121, “Discovery of arylsulfonamides as a novel class of allosteric integrase inhibitors with antiviral activity” (Bioorg Med Chem Lett, 2023) can be followed below.

Molecules are shown by their SMILES.

A short description of assay [1]: Allosteric inhibition of LEDGF binding to HIV integrase by InLEAD assay. The arrangement: species or system Human immunodeficiency virus.
Assay [2] relates to Human immunodeficiency virus 1. The assay can be described thus: Antiviral activity against HIV-1. The assay is classed as functional, organism-based.
The test system of assay [3] is Human immunodeficiency virus 1. The assay can be described thus: Selectivity ratio of IC50 for antiviral activity against early stage HIV-1 to IC50 for antiviral activity against late stage HIV-1. The assay is classed as functional.
In assay [4] the test system is Human immunodeficiency virus 1. Kind of assay: Antiviral activity against early stage HIV-1 assessed as disruption of proviral integration. The assay is classed as functional, organism-based.
For assay [5], the system named is Human immunodeficiency virus 1. Kind of assay: Antiviral activity against late stage HIV-1 assessed as inhibition of viral replication. Format: functional, organism-based.

Usually IC50 stands for the concentration that gives 50% inhibition. `COc1ccc(NC(=O)c2cncc(-c3cc(C)ccc3S(=O)(=O)NC(C)(C)C)c2)cc1`: the IC50 in assay [1] stood at 8.85 µM; in assay [2], 15.6 µM.
Take `COc1ccc(NC(=O)c2cncc(-c3cccc(C)c3S(=O)(=O)NC(C)(C)C)c2)cc1`: the values for the IC50 in assay [1] and in assay [2] were greater than 67.5 µM and 16.1 µM, respectively.
Consider `COCC1(NS(=O)(=O)c2ccccc2-c2cccc(C(=O)Nc3ccc(OC)cc3)c2)CCCC1`, for which the “Ratio IC50” value in assay [3] came out at 2.3. Moreover, the IC50 is 16.3 µM in assay [4], greater than 67.5 µM in assay [1], 5.15 µM in assay [2] and 7.15 µM in assay [5].
Regarding `CC(C)(C)NS(=O)(=O)c1ccccc1-c1cccc(C(=O)Nc2ccc(CCC(=O)O)cc2)c1`, the “Ratio IC50” value in assay [3] is given as greater than 3.6. The IC50 in assay [4] is greater than 42 µM; in assay [1] it was 3.74 µM; in assay [2], 6.53 µM; in assay [5], 12 µM.
With `COc1ccc(NC(=O)c2cccc(-c3ccccc3S(=O)(=O)NC(C)(C)CC(C)(C)C)c2)cc1`, the IC50 in assay [1] is greater than 67.5 µM; in assay [2], 2.91 µM.
For `COc1ccc(NC(=O)c2cncc(-c3ccc(C)cc3S(=O)(=O)NC(C)(C)C)c2)cc1`, the IC50 in assay [1] was greater than 67.5 µM; in assay [2], 10.8 µM.
Regarding `CC(C)(C)NS(=O)(=O)c1ccccc1-c1cncc(C(=O)Nc2ccc(CCC(=O)NCCNC(=O)c3ccc4c(c3)C(=O)OC43c4ccc(O)cc4Oc4cc(O)ccc43)cc2)c1`, the IC50 in assay [1] was determined as 0.368 µM.
As for `COc1ccc(NC(=O)c2cc(-c3ccccc3S(=O)(=O)NC(C)(C)C)ccc2F)cc1`, the IC50 in assay [1] was found to be 2.81 µM; in assay [2], 9.43 µM.
With `COC(=O)C(Cc1ccccc1)NC(=O)CCc1ccc(NC(=O)c2cncc(-c3ccccc3S(=O)(=O)NC(C)(C)C)c2)cc1` (stereo not drawn), the values for the IC50 in assay [1] and in assay [2] were 3.22 µM and 3 µM, respectively.
`CC(C)(C)NS(=O)(=O)c1ccccc1-c1cncc(C(=O)Nc2ccc(CCC(=O)O)cc2)c1`: the IC50 in assay [1] amounted to 1.29 µM; in assay [2] it was 9.31 µM.
Consider `COc1ccc(NC(=O)c2cncc(-c3ccccc3S(=O)(=O)NC(C)(C)C)c2)cc1`, for which the “Ratio IC50” value in assay [3] worked out at 5.4. In addition, the IC50 in assay [4] was 27.3 µM; in assay [1] it was 1.29 µM; in assay [2], 7.93 µM; in assay [5] it was 5.09 µM.
`COC(=O)CCc1ccc(NC(=O)c2cccc(-c3ccccc3S(=O)(=O)NC(C)(C)C)c2)cc1`: the IC50 came out at 1.45 µM in assay [1] and 4.91 µM in assay [2].
With `Cc1ccc(-c2c([C@H](OC(C)(C)C)C(=O)O)c(C)nc3ccccc23)cc1C`, the “Ratio IC50” value in assay [3] stood at 53.9. For the same molecule, the IC50 came to 1.67 µM in assay [4], 0.037 µM in assay [1] and 0.031 µM in assay [5].
For the molecule `COc1ccc(NC(=O)c2cccc(-c3ccccc3S(=O)(=O)NC(C)(C)C)c2)c(C)c1`, the figures for the concentration for half-maximal inhibition (IC50) in assay [1] and in assay [2] were 1.91 µM and 5.03 µM, respectively.
For `CCC(C)(C)NS(=O)(=O)c1ccccc1-c1cccc(C(=O)Nc2ccc(OC)cc2)c1` the same measures were 17.3 µM and 7.19 µM.
For `Cc1ccc(NC(=O)c2cccc(-c3ccccc3S(=O)(=O)NC(C)(C)C)c2)c(C)c1` the same measures were 1.05 µM and 5.1 µM.
`COc1ccc(NC(=O)c2cc(-c3ccccc3S(=O)(=O)NC(C)(C)C)ccc2Cl)cc1`: the values for the IC50 in assay [1] and in assay [2] were greater than 67.5 µM and greater than 42 µM, respectively.
As for `COc1ccc(NC(=O)c2cccc(-c3ccccc3S(=O)(=O)NC3(C)CC3)c2)cc1`, the IC50 in assay [1] turned out to be 5.97 µM; in assay [2], 5.81 µM.
On to `COc1ccc(NC(=O)c2cccc(-c3ccccc3S(=O)(=O)NC(C)(C)C)c2)cc1`, for which the IC50 amounted to 3.69 µM in assay [1] and 10.9 µM in assay [2].
For `COc1ccc(NC(=O)c2cccc(-c3ccccc3S(=O)(=O)NC(C)(C)C(C)(C)C)c2)cc1` the same measures were greater than 22.5 µM and 27.7 µM.
Take `COc1ccc(NC(=O)c2cccc(-c3ccccc3S(=O)(=O)NC(C)(C)C)n2)cc1`: the IC50 in assay [1] is greater than 33.8 µM; in assay [2], 11.2 µM.
Consider `COc1ccc(NC(=O)c2cncc(-c3c(C)cccc3S(=O)(=O)NC(C)(C)C)c2)cc1`, for which, in assay [3], the “Ratio IC50” value is reported as 9.3. The IC50 came to 25.2 µM in assay [4], 1.29 µM in assay [1], 1.4 µM in assay [2] and 2.7 µM in assay [5].
As to `COc1ccc(NC(=O)c2cccc(-c3ccccc3S(=O)(=O)NC3(C)CCC3)c2)cc1`, the figures for the IC50 in assay [1] and in assay [2] were 2.23 µM and 5.79 µM, respectively.
On to `COc1ccc(NC(=O)c2cc(-c3ccccc3S(=O)(=O)NC(C)(C)C)ccn2)cc1`, for which the IC50 in assay [1] is 3.79 µM; in assay [2] it was 6.35 µM.
As to `CC(C)(C)NS(=O)(=O)c1ccccc1-c1cncc(C(=O)Nc2ccc(CCCC(=O)O)cc2)c1`, the IC50 turned out to be 1 µM in assay [1] and 7.86 µM in assay [2].
